In the NIST ThermoML archive (doi:10.1016/j.jct.2015.09.022):
± gives the expanded uncertainty stated by the source.

Experiment: xn = mol fraction of the nth substance listed
Conditions: 100.7 kPa, Liquid; for viscosity: Falling or rolling sphere viscometry; for speed of sound: Frequency=3 MHz, Sing-around technique in a fixed-path interferometer; for mass density: Vibrating tube method

CCCCN [1-butanamine] + CCCC[n+]1ccn(C)c1.O=S(=O)([N-]S(=O)(=O)C(F)(F)F)C(F)(F)F
Conditions | mass density [kg/m3] | speed of sound [m/s] | viscosity [mPa·s]
298.15 K, x2 = 0 | 733.33 ± 0.2 | 1246.5 ± 1.3 | 0.47 ± 0.03
298.15 K, x2 = 0.0261 | – | 1234 ± 1.3 | –
298.15 K, x2 = 0.0486 | – | 1225.4 ± 1.3 | –
298.15 K, x2 = 0.0804 | – | 1216.5 ± 1.3 | –
298.15 K, x2 = 0.1026 | 916.12 ± 0.42 | 1211.6 ± 1.3 | 2.11 ± 0.13
298.15 K, x2 = 0.2026 | 1042.14 ± 0.29 | 1203.5 ± 1.3 | 4.44 ± 0.27
298.15 K, x2 = 0.3004 | 1134.03 ± 0.25 | 1203.2 ± 1.3 | 7.22 ± 0.44
298.15 K, x2 = 0.4056 | 1209.89 ± 0.27 | 1205.1 ± 1.4 | 11.01 ± 0.67
298.15 K, x2 = 0.5051 | 1266.69 ± 0.31 | 1208 ± 1.4 | 14.99 ± 0.91
298.15 K, x2 = 0.6119 | 1316.23 ± 0.37 | 1212 ± 1.4 | 20.24 ± 1.2
298.15 K, x2 = 0.7025 | 1351.49 ± 0.42 | 1215.1 ± 1.4 | 25.4 ± 1.5
298.15 K, x2 = 0.8002 | 1383.95 ± 0.48 | 1218.1 ± 1.5 | 32.04 ± 1.9
298.15 K, x2 = 0.9015 | 1412.83 ± 0.55 | 1222.9 ± 1.5 | 40.3 ± 2.4
303.15 K, x2 = 0 | 728.5 ± 0.2 | 1223.9 ± 1.3 | 0.44 ± 0.03
303.15 K, x2 = 0.0261 | – | 1212.2 ± 1.3 | –
303.15 K, x2 = 0.0486 | – | 1204.5 ± 1.3 | –
303.15 K, x2 = 0.0804 | – | 1196.3 ± 1.3 | –
303.15 K, x2 = 0.1026 | 911.59 ± 0.35 | 1192.1 ± 1.3 | 1.59 ± 0.1
303.15 K, x2 = 0.2026 | 1037.64 ± 0.27 | 1186.4 ± 1.3 | 3.23 ± 0.2
303.15 K, x2 = 0.3004 | 1129.36 ± 0.26 | 1187.1 ± 1.3 | 5.31 ± 0.32
303.15 K, x2 = 0.4056 | 1205.12 ± 0.28 | 1190 ± 1.4 | 8.35 ± 0.51
303.15 K, x2 = 0.5051 | 1262.02 ± 0.32 | 1193.8 ± 1.4 | 11.71 ± 0.71
303.15 K, x2 = 0.6119 | 1311.69 ± 0.37 | 1198.9 ± 1.4 | 16.01 ± 0.97
303.15 K, x2 = 0.7025 | 1346.8 ± 0.42 | 1203 ± 1.4 | 20.08 ± 1.2
303.15 K, x2 = 0.8002 | 1379.23 ± 0.48 | 1208 ± 1.5 | 25.55 ± 1.6
303.15 K, x2 = 0.9015 | 1408.07 ± 0.55 | 1212.9 ± 1.5 | 32.07 ± 1.9
308.15 K, x2 = 0 | 723.67 ± 0.2 | 1201.3 ± 1.3 | 0.41 ± 0.03
308.15 K, x2 = 0.0261 | – | 1190.3 ± 1.3 | –
308.15 K, x2 = 0.0486 | – | 1183.5 ± 1.3 | –
308.15 K, x2 = 0.0804 | – | 1177.2 ± 1.3 | –
308.15 K, x2 = 0.1026 | 907.02 ± 0.35 | 1174.1 ± 1.3 | 1.31 ± 0.08
308.15 K, x2 = 0.2026 | 1033.16 ± 0.27 | 1169 ± 1.3 | 2.63 ± 0.16
308.15 K, x2 = 0.3004 | 1124.87 ± 0.26 | 1170.3 ± 1.3 | 4.2 ± 0.26
308.15 K, x2 = 0.4056 | 1200.55 ± 0.28 | 1174.5 ± 1.4 | 6.58 ± 0.4
308.15 K, x2 = 0.5051 | 1257.23 ± 0.32 | 1178.9 ± 1.4 | 9.28 ± 0.56
308.15 K, x2 = 0.6119 | 1306.91 ± 0.37 | 1184.8 ± 1.4 | 12.71 ± 0.77
308.15 K, x2 = 0.7025 | 1342.12 ± 0.42 | 1189.6 ± 1.4 | 16.01 ± 0.97
308.15 K, x2 = 0.8002 | 1374.49 ± 0.48 | 1195.6 ± 1.5 | 20.49 ± 1.2
308.15 K, x2 = 0.9015 | 1403.3 ± 0.54 | 1200.9 ± 1.5 | 26.13 ± 1.6
313.15 K, x2 = 0 | 718.66 ± 0.2 | 1178.7 ± 1.3 | 0.39 ± 0.02
313.15 K, x2 = 0.0261 | – | 1169.5 ± 1.3 | –
313.15 K, x2 = 0.0486 | – | 1163.2 ± 1.3 | –
313.15 K, x2 = 0.0804 | – | 1157.5 ± 1.3 | –
313.15 K, x2 = 0.1026 | 902.44 ± 0.35 | 1155 ± 1.3 | 1.1 ± 0.07
313.15 K, x2 = 0.2026 | 1028.65 ± 0.27 | 1152.5 ± 1.3 | 1.99 ± 0.12
313.15 K, x2 = 0.3004 | 1120.14 ± 0.26 | 1155.1 ± 1.3 | 3.21 ± 0.19
313.15 K, x2 = 0.4056 | 1195.66 ± 0.28 | 1160 ± 1.3 | 4.98 ± 0.3
313.15 K, x2 = 0.5051 | 1252.53 ± 0.31 | 1165.2 ± 1.4 | 7.11 ± 0.43
313.15 K, x2 = 0.6119 | 1302.05 ± 0.37 | 1171.9 ± 1.4 | 9.9 ± 0.6
313.15 K, x2 = 0.7025 | 1337.26 ± 0.42 | 1177.8 ± 1.4 | 12.8 ± 0.78
313.15 K, x2 = 0.8002 | 1369.77 ± 0.48 | 1184.5 ± 1.5 | 16.65 ± 1
313.15 K, x2 = 0.9015 | 1398.51 ± 0.54 | 1190.5 ± 1.5 | 21.62 ± 1.3
318.15 K, x2 = 0 | 714.1 ± 0.2 | 1156.2 ± 1.3 | 0.37 ± 0.02
318.15 K, x2 = 0.0261 | – | 1148.2 ± 1.3 | –
318.15 K, x2 = 0.0486 | – | 1143.2 ± 1.3 | –
318.15 K, x2 = 0.0804 | – | 1138.2 ± 1.3 | –
318.15 K, x2 = 0.1026 | 898.17 ± 0.35 | 1137.8 ± 1.3 | 0.87 ± 0.05
318.15 K, x2 = 0.2026 | 1024.27 ± 0.27 | 1137.2 ± 1.3 | 1.57 ± 0.1
318.15 K, x2 = 0.3004 | 1115.68 ± 0.26 | 1141.4 ± 1.3 | 2.53 ± 0.15
318.15 K, x2 = 0.4056 | 1191.05 ± 0.28 | 1146.8 ± 1.3 | 3.95 ± 0.24
318.15 K, x2 = 0.5051 | 1247.99 ± 0.31 | 1152.5 ± 1.4 | 5.65 ± 0.34
318.15 K, x2 = 0.6119 | 1297.45 ± 0.37 | 1160 ± 1.4 | 7.95 ± 0.48
318.15 K, x2 = 0.7025 | 1332.6 ± 0.41 | 1167 ± 1.4 | 10.45 ± 0.63
318.15 K, x2 = 0.8002 | 1364.99 ± 0.47 | 1174.2 ± 1.5 | 13.75 ± 0.83
318.15 K, x2 = 0.9015 | 1393.75 ± 0.54 | 1180.5 ± 1.5 | 17.99 ± 1.1
323.15 K, x2 = 0 | 709.21 ± 0.2 | 1133.5 ± 1.3 | 0.35 ± 0.02
323.15 K, x2 = 0.0261 | – | 1126.2 ± 1.3 | –
323.15 K, x2 = 0.0486 | – | 1121.5 ± 1.3 | –
323.15 K, x2 = 0.0804 | – | 1117.8 ± 1.3 | –
323.15 K, x2 = 0.1026 | 893.96 ± 0.56 | 1118.6 ± 1.3 | 0.74 ± 0.05
323.15 K, x2 = 0.2026 | 1019.8 ± 0.4 | 1119 ± 1.3 | 1.32 ± 0.08
323.15 K, x2 = 0.3004 | 1110.93 ± 0.34 | 1124.5 ± 1.3 | 2.09 ± 0.13
323.15 K, x2 = 0.4056 | 1186.44 ± 0.32 | 1130.6 ± 1.3 | 3.26 ± 0.2
323.15 K, x2 = 0.5051 | 1243.22 ± 0.34 | 1137.2 ± 1.4 | 4.64 ± 0.28
323.15 K, x2 = 0.6119 | 1292.55 ± 0.38 | 1145.6 ± 1.4 | 6.49 ± 0.39
323.15 K, x2 = 0.7025 | 1327.75 ± 0.42 | 1153 ± 1.4 | 8.48 ± 0.51
323.15 K, x2 = 0.8002 | 1360.33 ± 0.48 | 1161.3 ± 1.5 | 11.32 ± 0.69
323.15 K, x2 = 0.9015 | 1389.17 ± 0.54 | 1168.3 ± 1.5 | 14.91 ± 0.9
